Results as given in patent US20110038796A1, “Method of Nuclear Medical Photography Using Dual-Isotopes” (ATOMIC ENERGY COUNCIL-INSTITUTE OF NUCLEAR ENERGY RESEARCH, priority 2009, published 2011).
Where a name gives a salt, the structure may show the parent alone.

Columns and labels:
[1] = tested on: dopamine transporter; test: SPECT with [^99mTc]TRODAT-1 (single-isotope or dual-isotopes), specific uptake ratio in striatum; assay type: in vivo, Macaca Cyclopis
Procedure: (§1) Please refer to FIG. 1, which is a flow view showing a preferred embodiment according to the present disclosure. As shown in the figure, the present disclosure is a method of nuclear medical photography using dual-isotopes, where effect of using dual isotopes on diagnosing anomalies of dopamine and serotonin in primate's brain is evaluated. The present disclosure comprises the following steps: (a) Obtaining control group 11: A control group is obtained, comprising at least one first individual applied with an imaging agent of single-isotope of [^99mTc]TRODAT-1 for dopamine transporter; at least one second individual applied with an imaging agent of single-isotope of [^123I]ADAM for serotonin transporter; and at least one third individual applied with imaging agents of dual-isotopes of [^99mTc]TRODAT-1 and [^123I]ADAM. Therein, the individuals are non-human primates, like Macaca Cyclopis.
(§2) (b) Taking photos for control group 12: Photos of the first to the third individuals in the control group are taken through single photon emission computed tomography (SPECT). Therein, on taking the photo of the first individual applied with the single-isotope of [^99mTc]TRODAT-1, 90 mg/ml of KClO4 is applied to the first individual at first; and, then, after 20 minutes, 740 MBq (20 mCi) of [^99mTc]TRODAT-1 is injected from intravenous. After [^99mTc]TRODAT-1 is injected, a SPECT device equipped with dual-headed gamma cameras (Hawkeye, Millennium VG, General Elecral Medical System, Milwaukee, Wis. USA) coordinated with fan-beam collimators is used to take photos, where 15 dynamic sequence of brain images are taken during 30 minutes (2 min/frame). Therein, an energy window is set between 126 Kev and 154 Kev; data of 128×128 pixel-matrice are fetched; each photo are enlarged for 1.6 times; a photo is taken for each 3° from 360°; and, each of the two detectors is responsible for taking photos for 180°. After data are collected and processed through Metz filter with attenuation calibration, three three-dimensional (3D) photos of coronal, sagittal and transaxial sections are formed. On taking the photo of the second individual applied with the single-isotope of [^123I]ADAM, 185 MBq (5 mCi) of [^123I]ADAM is injected from intravenous; and, an energy window is set between 143 Kev and 175 Kev. On taking the photo of the third individual applied with the dual-isotopes, 90 mg/ml of KClO4 is applied to the […] at first; and, after 20 minutes, 740 MBq (20 mCi) of [^99mTc]TRODAT-1 and 185 MBq (5 mCi) of [^123I]ADAM are injected from intravenous almost simultaneously. Therein, an energy window for [^99mTc]TRODAT-1 is set between 129 Kev and 151 Kev and another energy window for [^123I]ADAM is set between 159 Kev and 175 Kev.
(§3) (c) Analyzing photos of control group 13: Magnetic resonance imaging (MRI) photos of the first to the third individuals are taken to provide reference information for the following analysis:
(§4) (c3) Analysis on dual-isotopes: The photo of the third individual applied with the dual-isotopes of [^123I]ADAM and [^99mTc]TRODAT-1 obtained in step (b) are processed through visual interpretation to figure out an SUR of [^99mTc]TRODAT-1 in striatum and an SUR of [^123I]ADAM in midbrain, thalamus, striatum and frontal cortex.

[2] = biological target: dopamine transporter (Homo sapiens, UniProt Q01959); details: cited from earlier work
Chain of dopamine transporter (Homo sapiens, UniProt Q01959) (Q01959 whole entry): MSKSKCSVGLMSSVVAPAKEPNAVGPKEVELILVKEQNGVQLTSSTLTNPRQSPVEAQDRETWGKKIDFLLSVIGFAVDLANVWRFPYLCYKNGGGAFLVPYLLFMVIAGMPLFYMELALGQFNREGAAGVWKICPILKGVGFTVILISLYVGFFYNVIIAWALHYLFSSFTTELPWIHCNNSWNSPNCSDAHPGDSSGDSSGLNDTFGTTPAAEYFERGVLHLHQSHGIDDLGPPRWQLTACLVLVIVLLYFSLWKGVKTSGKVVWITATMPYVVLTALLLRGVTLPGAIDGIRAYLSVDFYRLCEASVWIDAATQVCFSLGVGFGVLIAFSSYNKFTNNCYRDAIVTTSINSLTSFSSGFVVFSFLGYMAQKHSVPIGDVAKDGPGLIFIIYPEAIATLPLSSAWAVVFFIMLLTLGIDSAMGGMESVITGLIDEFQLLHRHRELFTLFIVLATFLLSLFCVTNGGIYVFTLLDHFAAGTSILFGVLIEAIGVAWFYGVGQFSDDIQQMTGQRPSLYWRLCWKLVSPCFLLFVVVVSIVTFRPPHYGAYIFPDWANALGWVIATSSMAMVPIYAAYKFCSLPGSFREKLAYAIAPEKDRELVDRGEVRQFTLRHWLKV

[3] = tested on: serotonin transporter; test: SPECT with [^123I]ADAM (single-isotope or dual-isotopes), specific uptake ratio in brain regions; assay type: in vivo, Macaca Cyclopis
Procedure: as §1, §2, §3
(c1) Analysis on [^123I]ADAM: The photo of the […] individual applied with the single-isotope of [^123I]ADAM obtained in step (b) are processed through visual interpretation to pick out regions of interest (ROI) abundant in serotonin transporter, like midbrain, thalamus, striatum and frontal cortex; and a region lack of serotonin transporter, like cerebellum, is set as background. Mean counts per pixel (MCPP) of the ROIs are deducted with MCPPs of the background and then are divided by the MCPPs of the background to figure out a specific uptake ratios (SUR) of the single-isotope of [^123I]ADAM.
as §4

[4] = 180 to 210 minutes after injection

CNCCC(Oc1ccc(C(F)(F)F)cc1)c1ccccc1 (stereo not drawn) [fluoxetine]
[^99mTc]TRODAT-1 SURs after pretreatment with fluoxetine ([1]; dual-isotopes, 180 to 210 minutes after injection, pretreated with fluoxetine for 16 hours): no big changes | uptakes of [^99mTc]TRODAT-1 of striatum after pretreatment with fluoxetine versus not pretreated (conclusion) ([1]; pretreated with fluoxetine for 16 hours): no big difference

CN1[C@H]2CC[C@@H]1[C@@H](CN(CC[S-])CC[N-]CC[S-])[C@@H](c1ccc(Cl)cc1)C2.[O]=[99Tc+4] [[^99mTc]TRODAT-1]
[^99mTc]TRODAT-1 SUR of striatum, single-isotope versus dual-isotopes [1, 4]: no big difference | time to reach the highest binding level after injection [2]: within two hours

COC(=O)C(c1ccccc1)C1CCCCN1 (stereo not drawn) [methylphenidate HCl]
uptakes of [^99mTc]TRODAT-1 of striatum after pretreatment with methylphenidate HCl (conclusion) ([1]; dual-isotopes): obviously reduced | [^99mTc]TRODAT-1 SURs after pretreatment with methylphenidate HCl ([1]; dual-isotopes, 180 to 210 minutes after injection, methylphenidate HCl 1 mg/kg 10 minutes before): greatly lowered | uptakes of [^123I]ADAM after pretreatment with methylphenidate HCl versus not pretreated ([3]; midbrain, striatum, thalamus and frontal cortex, dual-isotopes, 180 to 210 minutes after injection, methylphenidate HCl 1 mg/kg): no big difference | specific uptakes of [^123I]ADAM after pretreatment with methylphenidate HCl versus not pretreated (conclusion) ([3]; midbrain, thalamus, striatum and frontal cortex): no big changes | [^123I]ADAM SURs after pretreatment with methylphenidate HCl ([3]; striatum, thalamus and midbrain, dual-isotopes, methylphenidate HCl 1 mg/kg): no big changes

CN(C)Cc1ccccc1Sc1ccc([123I])cc1N [[^123I]ADAM]
[^123I]ADAM photos, single-isotope versus dual-isotopes [3, 4]: no big difference | binding of [^123I]ADAM in brain regions (SPECT photos) ([3]; 180 to 210 minutes after injection, midbrain, thalamus and striatum, single-isotope or dual-isotopes): bound to regions abundant in serotonin transporter | [^123I]ADAM SURs, single-isotope versus dual-isotopes ([3]; striatum, thalamus, midbrain and frontal cortex): no big difference
